Measurements as given in patent US20100062993A1, “Adenosine Nucleotides as Dietary Supplements and as Agents in the Prevention of Cancer and the Metastasis Thereof” (priority 2008, published 2010).

Test system: human cancer cell linings
Test: Mice implanted with human cancer (tumor) cell linings: efficacy of MTA relative to SAMe
Type: in vivo
Source text: It is therefore astonishing that MTA, in experimental results on mice implanted with tumor cell linings, was 10 times more efficacious than SAMe. Part of the pharmacodynamics is surely that MTA is toxic to many cancer cells that are deficient in the enzymes that are needed to process it. Yet this 10:1 efficacy ratio is inexplicable under the above suppositions!
This is extremely surprising in light of the above!

CSC[C@H]1O[C@@H](n2cnc3c(N)ncnc32)[C@H](O)[C@@H]1O [MTA, 5-deoxy-5-methylthioadenosine]
efficacy relative to SAMe (mice implanted with human cancer cell linings, ratio versus SAMe): more than 10 fold | efficacy of MTA relative to SAMe (times more efficacious) (mice implanted with tumor cell linings, ratio versus SAMe (10:1)): 10 times
